Measured values published in PMC8262356, “SLC26A6-selective inhibitor identified in a small-molecule screen blocks fluid absorption in small intestine” (JCI Insight, 2021).

Tests used:
mouse ileal closed loops = assay: Closed ileal loop fluid absorption; assay type: in vivo
Method: For fluid absorption studies in small intestine, mice were given free access to 5% dextrose in water but not solid food for 24 hours before experiments. Closed midjejunal and ileal loops were prepared and isolated as described previously ([29]). Mice were anesthetized with isoflurane, and body temperature was maintained during surgery at 36°C–38°C using a heating pad. A small abdominal incision was made to expose small intestine for isolation of 3–4 closed small intestinal loops (jejunum or ileum, length 2–3 cm) with sutures. Loops were injected with 100 μL PBS (pH 7.4, 137 mM NaCl, 2.7 mM KCl, 8 mM Na2HPO4, 1.8 mM KH2PO4, 1 mM CaCl2, 0.5 mM MgCl2) containing 30 μM PAT1inh-B01, 10 μM DRAinh-A270, or 10 μM tenapanor (MedChemExpress) (or vehicle, 0.1% DMSO in PBS). In some experiments, 30 μM PAT1inh-B01 and 10 μM DRAinh-A270 were used together. In some experiments to rule out effects of sodium-dependent phosphate transport, the loop lumen contained HEPES-buffered saline (pH 7.4, 137 mM NaCl, 4.5 mM KCl, 10 mM HEPES, 1 mM CaCl2, 0.5 mM MgCl2). The abdominal incision was closed with sutures, and mice were allowed to recover from anesthesia. Intestinal loops were removed at 0 and 30 minutes (in separate mice), and loop length and weight were measured to quantify fluid absorption. In parallel experiments, CF mice were used and loop studies were done as described above. In some experiments, loop fluid was emptied with a syringe, and pH was measured immediately using AB15 pH meter after brief centrifugation at 2000 g for 5 minutes at 4°C.

[1] = test system: loperamide-induced constipation in mice; assay: Loperamide model of constipation; assay type: in vivo, mouse; conditions: 10 mg/kg, oral, stool collected over 3 hours
Method: Wild-type CD1 mice were administered loperamide (0.3 mg/kg, intraperitoneally) in PBS containing 5% ethanol (0.1 mg/mL final concentration) to induce constipation ([9], [30]). PAT1inh-B01 and DRAinh-A270, individually or together (10 mg/kg each, in saline containing 5% DMSO and 10% Kolliphor HS 15), or vehicle control were administered by oral gavage 1 hour before loperamide. After loperamide injection mice were placed individually in metabolic cages with free access to food and water. Stool samples were collected for 3 hours, and total stool weight and number of fecal pellets were quantified. To measure stool water content, stool samples were dried at 80°C for 24 hours and water content was calculated as follows: (wet weight – dry weight)/wet weight ([9], [30]).

Cc1c(Br)c(C(F)(F)F)nn1CC(=O)N1CCc2nc3cc(-c4ccccc4)[nH]n3c(=O)c2C1 [PAT1inh-B01]
effect on ileal fluid absorption (loop weight-to-length ratio) (mouse ileal closed loops; 30 μM luminal, 30 minutes, PBS): fully blocked | effect on increase of ileal loop fluid pH (mouse ileal closed loops; 30 minutes after injection of PBS (pH 7.4), control pH greater than 8.0): prevented | effect on ileal fluid absorption in absence of luminal phosphate (mouse ileal closed loops; HEPES-buffered saline): effectively blocked | block of fluid absorption in ileal loops (mouse ileal closed loops; ileal loops (abstract)): > 80% | effect on stool parameters (weight, number of pellets, water content) [1]: did not affect
